# Measurements reported in US20090170949A1, “Method To Control Body Weight” (priority 2006, published 2009).
# Experiments:
# [1] = test system: SGLT1; experiment: SGLT1 expression in T1R3 knock-out mice on low carbohydrate plus sucralose diet; type: in vivo, mouse; settings: T1R3 KO mice, 2 weeks
# Protocol: (§1) Male CD-1 and C57BL/6 mice, six weeks old, from Charles River Laboratories were used. The α-gustducin knock out mouse was described by Wong et al. (1996); the T1R3 knock out mouse was described by Damak et al. 2003).
# (§2) High and low carbohydrate diets were resp. TestDiet® 5810 and TestDiet® 5787-9. For the sucralose test, the low carbohydrate diet was supplemented with sucralose (1,6-dichloro-1,6-dideoxy-beta-D-fructofuranosyl-4-chloro-4-deoxy-alpha-galactopyranoside) at 2 mM.
# (§3) Animals were killed by concussion followed by cervical dislocation. The entire small intestine was removed and flushed with ice-cold 0.9% NaCl, opened longitudinally, rinsed in saline and mucous removed by blotting. The small intestine was then divided into proximal, mid and distal sections and the mucosa removed by scraping. Mucosal scrapings were frozen immediately in liquid nitrogen and stored at −80° C. until use. […]
# (§4) Second, groups of wild-type and T1R3 and α-gustducin KO mice were placed on each of three iso-caloric diets a) low carbohydrate, b) high carbohydrate, and c) low carbohydrate+artificial sweetener (sucralose), for two weeks. After this time the mice were killed and the small intestines were removed, divided into proximal, mid and distal regions, and SGLT1 expression, at protein and mRNA levels, were measured in each.
# [2] = test system: SGLT1; experiment: SGLT1 mRNA levels (real-time PCR) in small intestine of wild-type mice on low carbohydrate plus sucralose diet; type: in vivo, mouse; settings: proximal and mid intestinal regions, sucralose (2 mM) added to low carbohydrate diet, 2 weeks, qPCR
# Protocol: as §1, §2, §3, §4
# [3] = test system: SGLT1; experiment: SGLT1 expression in α-gustducin knock-out mice on low carbohydrate plus sucralose diet; type: in vivo, mouse; settings: α-gustducin KO mice, 2 weeks
# Protocol: as §1, §2, §3, §4
# [4] = Body weight gain and food intake of mice on low carbohydrate diet with or without sucralose; type: in vivo, mice (C57BL/6); settings: C57BL/6 mice, low carbohydrate diet with 0.3% sucralose, ad libitum, 12 weeks
# Excerpt: induction of weight increase in mice by the use of an artificial sweetener Two groups of mice (C57BL/6) were fed ad libitum with a low carbohydrate diet (1.9% remaining carbohydrate, Purina), with or without 0.3% sucralose (Tate and Lyle). Food consumption and body weight was followed for a period of 12 weeks.
# [5] = male and female dogs, diet with various concentrations of sucralose; cited from earlier work
# [6] = test system: SGLT1; experiment: SGLT1 protein expression (western blot of luminal membrane vesicles) in wild-type mice on low carbohydrate plus sucralose diet; type: in vivo, mouse; settings: 2 weeks
# Protocol: as §1, §2, §3, §4
# [7] = Effect of lactisole on body weight (applicant's general finding); type: in vivo; settings: also when encapsulated and/or coated to avoid contact with the taste receptor of the mouth
# [8] = Triglycerides in blood plasma of obese marmosets treated with coated lactisole pills; type: in vivo, common marmoset monkeys (Callithrix jacchus); set-up: Triglycerides in blood plasma: unit not given here
# Protocol: 5 mm diameter coated pill were made, comprising 20 mg tablettose, 26.5 mg Avicell PH 102, 2.5 mg Crospovidone and 1 mg Mg-stearate for the placebo, and 35 mg sodium 2-(4-methoxyphenoxy)propionate (Endeavour speciality chemicals), 11.5 mg Avicel PH 102, 2.5 mg Crospovidone and 1 mg Mg-stearate for the Lactisole pills. Pills were coated in a fluidized bed (GCPG1, Glatt), at a spray rate of 4 g/min, atomic pressure 1.5 bar, inlet air temperature 36° C., product temperature 31° C. at maximal air velocity. The composition of the coating solution was 11.4% Eudragit® EPO(Röhm Pharma), 1.14% Sodium lauryl sulphate (α-pharma), 4% Mg-stearate (α-pharma), 1.72% stearic acid (α-pharma) and water ad 100%.
# Adult male and female common marmoset monkeys (Callithrix jacchus) were from the breeding colony of the German Primate Center (DPZ), Göttingen, Germany. Animals were housed in pairs in air-conditioned facilities on a 12 hr/12: HR light/dark cycle.
# Animals were fed two times a day: mash feeding, containing 15 g of test diet in the morning, and 60 g of test diet in the afternoon (value per animal). Each time before feeding, the animals received two pills (either placebo or lactisole) in nutrical gel.
# Three groups of marmosets were compared: 11 obese animals treated with lactisole, 11 obese animals receiving placebo and 12 lean control animals receiving placebo. The experiment is carried out for 10 weeks, and bodyweight, glycated hemoglobin HbA1c, and glucose in blood plasma is measured. […]
# Obese animals were treated for 7 weeks with lactisole (70 mg, two times a day, before feeding). Control obese and lean animals received placebo pills.
# [9] = rats, high lactisole concentrations added to the diet; considered statistically insignificant; cited from earlier work
compound,measurement,setting,value
"OC[C@H]1O[C@H](O[C@]2(CCl)O[C@H](CCl)[C@@H](O)[C@@H]2O)[C@H](O)[C@@H](O)[C@H]1Cl [sucralose, 1,6-dichloro-1,6-dideoxy-beta-D-fructofuranosyl-4-chloro-4-deoxy-alpha-galactopyranoside]",SGLT1 mRNA response,[1],no increase
same,SGLT1 protein response,[1],no increase
same,increase of SGLT1 mRNA,[2],30-70%
same,SGLT1 mRNA response,[3],no increase
same,SGLT1 protein response,[3],no increase
same,average increase in body weight gain versus control group,[4],42%
same,food intake higher than control group,[4],7.5%
same,body weight gain and final body weight,[5],gaining more rapidly body weight and reached a higher final body weight level
same,SGLT1 protein expression,[6],increased
"COc1ccc(OC(C)C(=O)O)cc1 (stereo not drawn) [Lactisole, sodium 2-(4-methoxyphenoxy) propanoate]",effect on body weight,[7],body weight loss
same,Triglycerides in blood plasma,"[8]; obese marmosets N = 11, high carb feeding week 0, week −4 with respect to lactisole treatment (before treatment)",2.75
same,Triglycerides in blood plasma,"[8]; obese marmosets N = 11, high carb feeding week 3, week −1 with respect to lactisole treatment (before treatment)",2.24
same,Triglycerides in blood plasma,"[8]; obese marmosets N = 11, high carb feeding week 5, week 1 of lactisole treatment, 70 mg two times a day",1.82
same,Triglycerides in blood plasma,"[8]; obese marmosets N = 11, high carb feeding week 7, week 3 of lactisole treatment, 70 mg two times a day",1.85
same,Triglycerides in blood plasma,"[8]; obese marmosets N = 11, high carb feeding week 9, week 5 of lactisole treatment, 70 mg two times a day",1.57
same,Triglycerides in blood plasma,"[8]; obese marmosets N = 11, high carb feeding week 11, week 7 of lactisole treatment, 70 mg two times a day",1.52
same,"serum triglyceride level, course in treated obese animals","[8]; obese marmosets, 7 weeks lactisole 70 mg two times a day before feeding",decreasing to the level of the lean control
same,body-weight gain,[9],reduction in body-weight gain
